Results reported in patent US9290516B2, “Benzobis(thiadiazole) derivative and organic electronics device comprising same” (Ube Industries, Ltd., priority 2012, dated 2016).
Read-outs that look alike come from different tables or passages of the source.

Experiments:
Assay type in all cases: physicochemical
[1] = Solubility Experiment 3 (chlorobenzene, visual observation); settings: organic solvent or mixture, thermodynamic from solid, 1 mg in 1 mL chlorobenzene
Protocol: 1 mg of each compound shown in Table 1 [BBT-(1)-BBT-(14)] was added to 1 mL of a solvent (chlorobenzene) and the mixture was heated to 100° C. or 140° C., and the solubility was evaluated by visual observation.

[2] = Solubility Experiment 2 (mesitylene); settings: 5 mg in 1.6 g mesitylene, heated to 100° C.
Protocol: Into a 20-ml glass vessel equipped with a stirring apparatus were placed 5 mg of BBT-(1), and 1.6 g of mesitylene.
(§1) On the other hand, using BBT-(11): (FPTBBT) synthesized in Reference Example 1, instead of BBT-(1), the preparation of a solution of BBT-(11) in 1,2-dichlorobenzene was attempted in accordance with [Solubility Experiment 1]. […] The suspension was filtered through a 0.2-μm filter, and then dropped onto a silicon wafer as described above. And then, without any treatment, the solvent component was volatilized, but the formation of a thin film of BBT-(11) was not confirmed. Meanwhile, using BBT-(11), instead of BBT-(1), the preparation of a solution of BBT-(11) in mesitylene was attempted in accordance with [Solubility Experiment 2]. […] The suspension was filtered through a 0.2-μm filter, and then dropped onto a silicon wafer as described above. And then, without any treatment, the solvent component was volatilized, but the formation of a thin film of BBT-(11) was not confirmed.

[3] = Solubility Experiment 1 (1,2-dichlorobenzene); settings: 5 mg in 1.6 g 1,2-dichlorobenzene, heated to 150° C.
Protocol: Into a 20-ml glass vessel equipped with a stirring apparatus were placed 5 mg of BBT-(1), and 1.6 g of 1,2-dichlorobenzene.
as §1

[4] = heated to 100° C., read-out: Solubility chlorobenzene (° C.) 100
[5] = heated to 140° C., read-out: Solubility chlorobenzene (° C.) 140

SMILES | solubility [1, 4] [µg/mL] | solubility [1, 5] [µg/mL] | Solubility in mesitylene [2] | Solubility in 1,2-dichlorobenzene [3]
CC(F)(F)c1ccc(-c2ccc(-c3c4c(c(-c5ccc(-c6ccc(C(C)(F)F)cc6)s5)c5nsnc35)N=S=N4)s2)cc1 [BBT-(4)] | < 1000 | > 1000 |  | 
FC(F)(F)Oc1ccc(-c2ccc(-c3c4c(c(-c5ccc(-c6ccc(OC(F)(F)F)cc6)s5)c5nsnc35)N=S=N4)s2)cc1 [BBT-(1)] | > 1000 | > 1000 | completely dissolved | completely dissolved
CCCCCCCCCCC(F)(F)c1ccc(-c2ccc(-c3c4c(c(-c5ccc(-c6ccc(C(F)(F)CCCCCCCCCC)cc6)s5)c5nsnc35)N=S=N4)s2)cc1 [BBT-(5)] | > 1000 | > 1000 |  | 
CC(F)(F)Oc1ccc(-c2ccc(-c3c4c(c(-c5ccc(-c6ccc(OC(C)(F)F)cc6)s5)c5nsnc35)N=S=N4)s2)cc1 [BBT-(6)] | < 1000 | > 1000 |  | 
FC(F)(F)Oc1ccccc1-c1ccc(-c2c3c(c(-c4ccc(-c5ccccc5OC(F)(F)F)s4)c4nsnc24)N=S=N3)s1 [BBT-(3)] | > 1000 | > 1000 |  | 
FC(F)(F)Oc1cccc(-c2ccc(-c3c4c(c(-c5ccc(-c6cccc(OC(F)(F)F)c6)s5)c5nsnc35)N=S=N4)s2)c1 [BBT-(2)] | > 1000 | > 1000 |  | 

More lines, now with the values ahead:

solubility [1, 4] [µg/mL] | solubility [1, 5] [µg/mL] | Solubility in mesitylene [2] | Solubility in 1,2-dichlorobenzene [3] | SMILES
> 1000 | > 1000 |  |  | CCCCCCCCCC(F)(F)Oc1ccc(-c2ccc(-c3c4c(c(-c5ccc(-c6ccc(OC(F)(F)CCCCCCCCC)cc6)s5)c5nsnc35)N=S=N4)s2)cc1 [BBT-(7)]
> 1000 | > 1000 |  |  | Cc1ccc(-c2ccc(-c3c4c(c(-c5ccc(-c6ccc(C)cc6)s5)c5nsnc35)N=S=N4)s2)cc1 [BBT-(12), reference compound]
> 1000 | > 1000 |  |  | CCCCCCCCCc1ccc(-c2ccc(-c3c4c(c(-c5ccc(-c6ccc(CCCCCCCCC)cc6)s5)c5nsnc35)N=S=N4)s2)cc1 [BBT-(14), reference compound]
> 1000 | > 1000 |  |  | CCCCCCCCCCOC(F)(F)c1ccc(-c2ccc(-c3c4c(c(-c5ccc(-c6ccc(C(F)(F)OCCCCCCCCCC)cc6)s5)c5nsnc35)N=S=N4)s2)cc1 [BBT-(10)]
< 1000 | < 1000 | not completely dissolved | not completely dissolved | FC(F)(F)c1ccc(-c2ccc(-c3c4c(c(-c5ccc(-c6ccc(C(F)(F)F)cc6)s5)c5nsnc35)N=S=N4)s2)cc1 [BBT-(11), reference compound]
< 1000 | > 1000 |  |  | COc1ccc(-c2ccc(-c3c4c(c(-c5ccc(-c6ccc(OC)cc6)s5)c5nsnc35)N=S=N4)s2)cc1 [BBT-(13), reference compound]
< 1000 | > 1000 |  |  | CC(C)CC(F)c1ccc(-c2ccc(-c3c4c(c(-c5ccc(-c6ccc(C(F)CC(C)C)cc6)s5)c5nsnc35)N=S=N4)s2)cc1 (stereo not drawn) [BBT-(9)]
